US5089623A, “Certain imidate insecticides” (Imperial Chemical Industries Plc, priority 1990, dated 1992)

Key:
Type in all cases: in vivo
[1] = test system: Aster Leafhopper [Macrosteles fascifrens (Stal)]; assay: Aster leafhopper test (LH); details: adults/nymphs, 48 hours, percent in solution
Procedure: Oat seedlings (Avena sp) were grown in a commercial potting soil in cups. When the plants were approximately 10 cm tall they were thinned to three plants per cup and dipped for 2-3 seconds in 50-50 acetone-water solutions of the test compounds. When the plants had dried, a clear plastic tube was placed over them and the bottom end pressed into the cup. Ten aster leafhopper adults/nymphs were then placed in each tube and the tops of the tubes covered with white organdy cloth. Mortality counts were made after 48 hours. Test concentrations ranged from 0.05% down to that at which 50% mortality occurred.

[2] = test system: Tobacco Budworm [Heliothis virescens (Fabricius)] eggs; assay: Tobacco budworm egg test (TBW-E); details: percent in solution
Source text: Eggs: Paper towel patches of 2-day old eggs of the tobacco budworm were dipped in acetone solutions of the test compound and placed in petri dishes containing a portion of larval rearing medium. […] Test concentrations ranged from 0.1% downward.

[3] = test system: Housefly [Musca domestica]; assay: Housefly insecticidal test (HF); details: per 25 female houseflies, 48 hours
[4] = test system: Cabbage Looper [Trichoplusia ni (Hubner)]; assay: Cabbage looper test (CL); details: second-instar larvae, 3-5 days, percent in solution

CCc1ccc(N=C(OCc2cccc(Oc3ccccc3)c2)C(C)C)cc1 [Compound 161]
LC50 LH [1]: 0.002% | LC50 TBW E [2]: 0.07% | LC50 HF [3]: 15 µg | LC50 CL [4]: 0.0014%

CCc1cccc(N=C(OCc2cccc(Oc3ccccc3)c2)C(C)(C)C)c1 [Compound 162]
LC50 LH [1]: > 0.05% | LC50 TBW E [2]: > 0.1% | LC50 HF [3]: > 100 µg | LC50 CL [4]: 0.035%

CC(C)C(=Nc1ccc2c(c1)CCC2)OCc1cccc(Oc2ccccc2)c1 [Compound 187]
LC50 LH [1]: 0.0025% | LC50 TBW E [2]: > 0.1% | LC50 HF [3]: 15 µg | LC50 CL [4]: 0.0025%

CCCC(=Nc1ccc2c(c1)OCO2)OCc1cccc(Oc2ccccc2)c1 [Compound 188]
LC50 LH [1]: > 0.05% | LC50 TBW E [2]: > 0.1% | LC50 HF [3]: 12 µg | LC50 CL [4]: 0.002%

Cc1ccc(Oc2cccc(COC(=Nc3ccc(F)c(Cl)c3)C(C)C)c2)cc1 [Compound 225]
LC50 LH [1]: > 0.05% | LC50 TBW E [2]: > 0.1% | LC50 HF [3]: > 100 µg | LC50 CL [4]: 0.0025%

CC(C)C(=Nc1ccc(C(C)C)cc1)OCc1cccc(Oc2ccc(F)cc2)c1 [Compound 228]
LC50 LH [1]: > 0.05% | LC50 TBW E [2]: > 0.1% | LC50 HF [3]: > 100 µg | LC50 CL [4]: 0.0025%

CC(C)C(=Nc1ccc2c(c1)OC(C)(C)O2)OCc1ccc(F)c(Oc2ccccc2)c1 [Compound 242]
LC50 LH [1]: > 0.05% | LC50 TBW E [2]: > 0.1% | LC50 HF [3]: < 100 µg | LC50 CL [4]: 0.00025%

CSc1ccc(Oc2cccc(COC(=Nc3ccc(F)cc3)C(C)C)c2)cc1 [Compound 257]
LC50 LH [1]: > 0.05% | LC50 TBW E [2]: > 0.1% | LC50 HF [3]: > 100 µg | LC50 CL [4]: 0.008%

Fc1ccc(Oc2cccc(COC(=Nc3ccc(F)c(Cl)c3)C(F)(F)C(F)(F)F)c2)cc1 [Compound 258]
LC50 LH [1]: > 0.05% | LC50 TBW E [2]: > 0.1% | LC50 HF [3]: > 100 µg | LC50 CL [4]: 0.003%

CC(C)C(=Nc1cccc([N+](=O)[O-])c1)OCc1cccc(Oc2ccc(Cl)cc2)c1 [Compound 271]
LC50 LH [1]: > 0.05% | LC50 TBW E [2]: 0.1% | LC50 HF [3]: 27 µg | LC50 CL [4]: 0.0004%

CC(C)C(=Nc1cc(F)ccc1Cl)OCc1ccc(F)c(Oc2ccc(F)cc2)c1 [Compound 303]
LC50 LH [1]: 0.0005% | LC50 TBW E [2]: > 0.1% | LC50 HF [3]: > 100 µg | LC50 CL [4]: 0.0015%

CC(C)C(=Nc1ccc(Cl)cc1)OC(C)c1cccc(Oc2ccccc2)c1 (centres unmarked) [Compound 457]
LC50 LH [1]: > 0.05% | LC50 TBW E [2]: > 0.05% | LC50 HF [3]: > 100 µg | LC50 CL [4]: 0.009%

CC(C)C(=Nc1ccc2c(c1)OCO2)OCc1cccc(Oc2ccc(F)cc2)n1 [Compound 465]
LC50 LH [1]: 0.0025% | LC50 TBW E [2]: 0.027% | LC50 HF [3]: 8 µg | LC50 CL [4]: 0.0017%

CC(C)C(=Nc1cccc(C(F)(F)F)c1)OCC#CCOc1ccccc1 [Compound 548]
LC50 LH [1]: > 0.05% | LC50 TBW E [2]: > 0.1% | LC50 HF [3]: > 100 µg | LC50 CL [4]: < 0.1%
